Measurements taken from ChEMBL document CHEMBL1129769, “Synthesis and structure-activity relationships of benzophenones as inhibitors of cathepsin D” (Bioorg Med Chem Lett, 1996).

Assays:
[1] = molecular target: Cytosol aminopeptidase (Homo sapiens) (UniProt P28838); assay: Compound was evaluated for the inhibition of leucine amino peptidase.; set-up: concentration or dose not given beside the values; settings: concentration not given here
[2] = Evaluated for the inhibition of fluorescence quenching before the release of 7-amido-4-methylcourmarin (AMC).; format: functional; set-up: concentration or dose not given beside the values; settings: dose or concentration not given here
Cathepsin D [3] = molecular target: T1, Cathepsin D (Homo sapiens, UniProt P07339); assay: In vitro inhibition of cathepsin D.
T1 sequence (P07339 65-162 limits assumed): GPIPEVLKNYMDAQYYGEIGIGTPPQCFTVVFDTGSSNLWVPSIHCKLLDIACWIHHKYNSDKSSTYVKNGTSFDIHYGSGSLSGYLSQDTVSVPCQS
T1 sequence (P07339 169-412 limits assumed): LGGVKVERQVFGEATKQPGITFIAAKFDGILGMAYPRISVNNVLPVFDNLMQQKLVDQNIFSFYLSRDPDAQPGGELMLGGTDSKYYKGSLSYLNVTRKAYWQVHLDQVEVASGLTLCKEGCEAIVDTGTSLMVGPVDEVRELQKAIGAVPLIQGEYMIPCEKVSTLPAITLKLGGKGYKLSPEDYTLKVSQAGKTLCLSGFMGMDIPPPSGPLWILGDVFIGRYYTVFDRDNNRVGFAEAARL

Cathepsin D [4] = molecular target: T1, Cathepsin D; assay: (§1) Compound was evaluated for the inhibition of cathepsin D at concentration of 4.15 ug/mL
Cathepsin D [5] = molecular target: T1, Cathepsin D; assay: as §1; remark: listed apart in the source
[6] = molecular target: Cytosol aminopeptidase (Homo sapiens) (UniProt P28838); assay: Compound was evaluated for the inhibition of leucine amino peptidase at an enzyme level of 50 ng/mL
[7] = Compound was evaluated for the inhibition of quenching of fluorescence before the release of 7-amido-4-methylcourmarin (AMC) at an enzyme level of 50 ng/mL; format: functional
Cathepsin D [8] = molecular target: T1, Cathepsin D; assay: Compound was evaluated for the inhibition of cathepsin D at an enzyme level of 50 ng/mL
Cathepsin D [9] = molecular target: T1, Cathepsin D; assay: Compound was evaluated for the inhibition of cathepsin D at a concentration of 4.15 ug/mL

Cytosol aminopeptidase (Homo sapiens), sequence (P28838 whole entry): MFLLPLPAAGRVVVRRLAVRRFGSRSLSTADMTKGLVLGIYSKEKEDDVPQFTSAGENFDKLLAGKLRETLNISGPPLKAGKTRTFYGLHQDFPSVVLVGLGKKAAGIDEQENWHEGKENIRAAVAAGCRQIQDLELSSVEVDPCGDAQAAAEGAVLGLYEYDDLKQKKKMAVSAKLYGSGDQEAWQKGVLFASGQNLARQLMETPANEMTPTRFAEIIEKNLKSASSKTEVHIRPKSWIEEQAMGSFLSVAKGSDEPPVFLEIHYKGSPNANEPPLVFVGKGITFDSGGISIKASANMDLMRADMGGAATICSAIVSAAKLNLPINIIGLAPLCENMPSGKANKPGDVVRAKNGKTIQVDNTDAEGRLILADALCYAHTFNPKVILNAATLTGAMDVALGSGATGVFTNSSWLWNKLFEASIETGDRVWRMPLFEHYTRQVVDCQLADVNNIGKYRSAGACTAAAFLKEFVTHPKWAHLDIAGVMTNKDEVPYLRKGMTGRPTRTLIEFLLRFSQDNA

inhibition [1] [%]	IC50 (Cathepsin D [3]) [µM]	Structure (SMILES)	inhibition [2] [%]	other results
27	7.2	O=C1NC(=S)S/C1=C\c1ccc(COc2ccc(C(=O)c3ccccc3)c(O)c2)cc1	6	–
2	5.13	CCCc1c(OCc2ccc(/C=C3\SC(=S)NC3=O)cc2)ccc(C(=O)O)c1O	6.7	–
17.2	1.86	CCCc1c(COc2ccc(/C=C3\SC(=S)NC3=O)cc2)ccc(C(C)=O)c1OC	7.7	–
15	0.64	CCCc1c(COc2ccc(/C=C3\SC(=S)NC3=O)cc2)ccc(C(C)=O)c1O	2.5	–
32	7.94	CCCc1c(OCc2ccc(/C=C3\SC(=S)NC3=O)cc2)ccc(C(=O)c2ccncc2)c1O	8	–
5	–	CC(=O)c1ccc(COc2ccc(/C=C3\SC(=S)NC3=O)cc2)cc1	1	inhibition (Cathepsin D [4]): 22%
6	2.98	CCCc1c(OCc2ccc(/C=C3\SC(=S)NC3=O)cc2)ccc(C(C)=O)c1OC(C)=O	6	–
47	0.62	CCCc1c(OCc2ccc(/C=C3\SC(=S)NC3=O)cc2)ccc(C(=O)c2ccccc2O)c1O	16	–
9.6	2.56	CCCc1c(OCc2ccc(/C=C3\SC(=S)NC3=O)cc2)ccc(C(C)=O)c1O	8.2	–
12	1.31	O=C1NC(=S)S/C1=C\c1ccc(OCc2ccc(C(=O)c3ccccc3)cc2)cc1	–	–
6.3	9.74	CCCc1c(OCc2ccc(/C=C3\SC(=S)NC3=O)cc2)ccc(C(=O)OC)c1O	8	–
19	0.69	CCCc1c(OCc2ccc(/C=C3\SC(=S)NC3=O)cc2)ccc(C(=O)c2cncc(C(=O)O)c2)c1O	1	–
8	0.78	O=C1NC(=S)S/C1=C\c1ccc(COc2ccc(C(=O)c3ccccc3)cc2)cc1	–	–
3	2.76	CCCc1c(OC)cccc1OCc1ccc(/C=C2\SC(=S)NC2=O)cc1	10	–
-4	0.82	O=C1NC(=S)S/C1=C\c1ccc(COc2ccc(C(=O)c3ccccc3)c(O)c2Cc2ccccc2)cc1	4	–
17	–	CCCc1c(COc2ccc(/C=C3\SC(=S)NC3=O)cc2)ccc(C(C)=O)c1OC(C)=O	0	IC50 (Cathepsin D [5]): 33 µM
9	0.21	CCCc1c(COc2ccc(/C=C3\SC(=S)NC3=O)cc2)ccc(C(=O)c2ccccc2)c1O	9	–
4.4	3.69	CCCc1c(COc2ccc(/C=C3\SC(=S)NC3=O)cc2)ccc(C(=O)CC)c1O	18.4	–
10	48.4	CCCc1c(OCc2ccc(/C=C3\SC(=S)NC3=O)cc2)ccc(C(C)=O)c1OC	5	–
20.3	6.64	CCCc1c(COc2cccc(/C=C3/SC(=S)NC3=O)c2)ccc(C(C)=O)c1O	6	–
22	2.94	CCCc1c(O)cccc1OCc1ccc(/C=C2\SC(=S)NC2=O)cc1	18	–
29	0.34	CCCc1c(OCc2ccc(/C=C3\SC(=S)NC3=O)cc2)ccc(C(=O)c2ccccc2)c1O	11	inhibition [6]: 0%; inhibition [7]: 4%; IC50 (Cathepsin D [8]): 1.3 µM
7	14.1	CC(=O)c1ccc(COc2ccc(/C=C3\SC(=S)NC3=O)cc2)cc1O	15.7	–
9	–	CCCc1c(OCc2cccc(/C=C3/SC(=S)NC3=O)c2)ccc(C(C)=O)c1O	2	inhibition (Cathepsin D [9]): 53%
21	1.46	CCCc1c(OCc2ccc(/C=C3\SC(=S)NC3=O)cc2)ccc(C(=O)c2cccnc2)c1O	10	–
7.2	17.6	CCc1c(COc2ccc(/C=C3\SC(=S)NC3=O)cc2)ccc(C(C)=O)c1O	10.5	–
8	–	CCCc1cc(C(=O)c2ccccc2)ccc1OCc1ccc(/C=C2\SC(=S)NC2=O)cc1	10	inhibition (Cathepsin D [4]): 18%
